What all share (assay): inhibition of tumour cell growth, NCI panel, 48 h
Assay [1] concerns K-562 leukemia.
The test system of assay [2] is KM12 colon.
In assay [3] the test system is MDA-N.
Assay [4] concerns NCI/ADR-RES ovarian.
Assay [5] deals with OVCAR-5 ovarian.
Assay [6] concerns SNB-19 CNS.
Assay [7] has as its system SR leukemia.
Assay [8] concerns T-47D breast.
For assay [9], the system named is TK-10 renal.
Assay [10] has as its system UACC-62 melanoma.

“And” between values parts separate entries of the source, which are not always exact repeats. Identical values can stand only once.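 These data come from cells grown in 96-well plates and exposed to compound for 48 hours at five concentrations. GI50 is the concentration that inhibits growth by half. TGI: concentration producing complete growth inhibition.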 A value given as a limit tells only on which side of the number the result lay.

On to `C(=N\NC1=NCCCN1)/c1ccc(-c2cn3cc(/C=N/NC4=NCCCN4)ccc3n2)cc1`, for which the TGI was greater than 84.3 µM in assay [1]; greater than 100 µM in [2]; greater than 100 µM in assay [3]; greater than 100 µM in [4]; greater than 100 µM in assay [5]; greater than 100 µM in [6]. Besides, the TGI is greater than 29 µM in [7], greater than 100 µM in assay [8], greater than 100 µM in [9] and greater than 100 µM in assay [10].

`CCCCCCc1cc(C=O)sc1-c1ccc(-c2sc(-c3ccc(-c4ccc(-c5cc(CCCCCC)c(-c6ccc(-c7sc(C=O)cc7CCCCCC)s6)s5)s4)s3)cc2CCCCCC)s1`: the TGI in [1], in [2], in [3], in assay [4], in [5] and in assay [6] was greater than 100 µM each time. Further, the TGI in assay [7], in assay [8], in assay [9] and in assay [10] was greater than 100 µM throughout.

For `Cc1nn(-c2ccccc2)c(C)c1/C=N/NC(=O)c1sc(=S)n(-c2ccc(Cl)cc2)c1N`, the TGI in assay [1], in assay [2], in [3], in assay [4], in assay [5] and in [6] was greater than 100 µM throughout. For the same molecule, the TGI in assay [7] was greater than 100 µM; in [8], greater than 100 µM; in [9], 14.4 µM; in assay [10], 74.1 µM.

Take `CC(C)(C)[Si](C)(C)OCC1OC(n2ccc(=O)[nH]c2=O)C(O[Si](C)(C)C(C)(C)C)/C1=N/O` (configuration not stated): the TGI in assay [1] is 15.7 µM; in assay [2] it was greater than 22.6 µM; in assay [3], greater than 36.2 µM; in [4] it was 8.79 µM; in assay [5] it was 18.6 µM; in assay [6], 18.1 µM. Moreover, the TGI in assay [7] stood at 7.28 µM; in assay [8], 24.2 µM; in [9], 20.9 µM; in assay [10] it was 24.8 µM.

On to `O=[N+]([O-])c1ccccc1S(=O)(=O)N1CCCc2cc(Cl)ccc21`, for which the TGI in assay [1] was greater than 75.2 µM; in [2] it was greater than 83.9 µM; in assay [3] it was greater than 48.2 µM; in [4], greater than 89.1 µM; in assay [5] it was greater than 100 µM; in [6] it was greater than 100 µM. The TGI was greater than 79.8 µM in [7], 96.5 µM in assay [8], greater than 100 µM in assay [9] and greater than 100 µM in assay [10].

For the molecule `Cc1cn2c(/C=C3/C(=O)Nc4ccccc43)c(-c3ccccc3)nc2s1`, the TGI in assay [1] was greater than 100 µM; in [2], greater than 100 µM; in [3], greater than 100 µM; in assay [4], greater than 100 µM; in assay [5], greater than 100 µM; in assay [6] it was 55.4 µM. The TGI is greater than 100 µM in assay [7], greater than 100 µM in [8], 51.2 µM in assay [9] and greater than 100 µM in [10].

As for `CC(=O)OCC1OC(n2c(-c3ccccc3)c(N=Nc3ccc(Cl)cc3)c(C)c(C#N)c2=S)C(OC(C)=O)C(OC(C)=O)C1OC(C)=O` (configuration not stated), the TGI in [1] is 28.6 µM and > 100 µM; in assay [2], 24.4 µM and > 100 µM; in assay [3] it was greater than 100 µM; in assay [4], greater than 100 µM; in [5], 30.6 µM and > 100 µM; in assay [6], 33.3 µM and > 100 µM. For the same molecule, the TGI in assay [7] was greater than 100 µM; in [8] it was 47.3 µM and > 100 µM; in assay [9] it was greater than 100 µM; in assay [10], 15 µM and > 100 µM. In addition, the GI50 in assay [2] is 9.22 µM and 85.4 µM; in assay [4], 6.76 µM and 33.2 µM; in [5], 15.7 µM and > 100 µM; in assay [6], 4.48 µM and 34.1 µM; in assay [7] it was 11.5 µM and 34.9 µM; in [8] it was 6.86 µM and 27.2 µM. In addition, in assay [10], the GI50 is 3.2 µM and 14.4 µM.

Take `CC(=O)C1=CC=C/C1=N\Nc1ccccc1`: the TGI in assay [1] is 20.5 µM; in [2], 15.5 µM; in [3], 19.2 µM; in [4], greater than 100 µM; in [5] it was 19.7 µM; in [6], 47.6 µM. Moreover, the TGI in assay [7] was found to be 4.95 µM; in [8] it was 18.3 µM; in assay [9], 18.6 µM; in [10], 28.7 µM.

In the case of `CCC(C#N)N(Cc1cccc(CN(C(C)=O)C(C#N)CC)c1)C(C)=O` (configuration not stated), the TGI in [1], in assay [2], in [3], in assay [4], in assay [5] and in [6] was greater than 100 µM throughout. Moreover, the TGI in assay [7], in assay [8], in assay [9] and in assay [10] was greater than 100 µM each time.

Regarding `CC1OC(OC2C(CO)OC(O[C@H]3CC[C@@]4(C)C(=CC[C@H]5[C@@H]6C[C@@H]7O[C@](O)(CC[C@@H](C)COC8OC(CO)C(O)C(O)C8O)[C@@H](C)[C@@H]7[C@@]6(C)CC[C@@H]54)C3)C(OC3OC(C)C(O)C(O)C3O)C2O)C(O)C(O)C1O` (some centres not stated), the TGI is greater than 43.4 µM in assay [1]; 6.85 µM in assay [2]; 8.67 µM in assay [3]; 4.22 µM in assay [4]; 6.76 µM in assay [5]; 6.39 µM in [6]. In addition, the TGI in assay [7] came out at 11 µM; in [8] it was 17.9 µM; in assay [9], 22.8 µM; in [10], 5.68 µM.

`CCOC(=O)c1cc(-c2ccc(OC)c(OC)c2)cn1C`: the TGI in assay [1], in assay [2], in assay [3], in [4], in assay [5] and in [6] was greater than 10 µM in each case. The TGI in assay [7], in [8], in assay [9] and in assay [10] was greater than 10 µM in each case.

The values are drawn from PubChem BioAssay (NCI).
